The NIST ThermoML archive (doi:10.1016/j.jct.2016.04.018)
Numbers after ± are expanded uncertainties.

Conditions: 298.15 K; 101.3 kPa; Crystal; flotation method

Q: With `O=[N+]([O-])c1ccc(O)c2ncccc12` [5-nitro-8-quinolinol] as the compound, how does the mass density read?
A: 1489.7 ± 2.5 kg/m3
